Results: paper doi:10.1101/2021.07.28.21261232v1 (medrxiv, 2021)

Columns and labels:
in vitro = details: human, microsomes
Human Thrombin = Human Thrombin (Homo sapiens, UniProt P00734)
Bovine Chymotrypsin = Bovine Chymotrypsin (Bos taurus, UniProt P00766)
Human Elastase = details: pH 8.0, room temperature, 50 mM Tris, 100 mM NaCl, Brij 35

SMILES: COc1cccc2[nH]c(C(=O)N[C@@H](CC(C)C)C(=O)N[C@@H](C[C@@H]3CCNC3=O)C(=O)CO)cc12 [compound 1, PF-00835231]
- microsomal CLint (in vitro): 7.47 ± 0.88 µL/min/mg

SMILES: COc1cccc2[nH]c(C(=O)N[C@@H](CC(C)C)C(=O)N[C@H](C#N)C[C@@H]3CCNC3=O)cc12 [compound 2, N-[(2S)-1-({(1S)-1-Cyano-2-[(3S)-2-oxopyrrolidin-3-yl]ethyl}amino)-4-methyl-1-oxopentan-2-yl]-4-methoxy-1H-indole-2-carboxamide]
- microsomal CLint (in vitro): 34.4 ± 0.7 µL/min/mg

SMILES: CC(C)[C@H](NS(C)(=O)=O)C(=O)N1C[C@H]2[C@@H]([C@H]1C(=O)N[C@@H](C[C@@H]1CCNC1=O)C(=O)c1nc3ccccc3s1)C2(C)C [compound 4, (1R,2S,5S)-N-{(2S)-1-(1,3-Benzothiazol-2-yl)-1-oxo-3-[(3S)-2-oxopyrrolidin-3-yl]propan-2-yl}-6,6-dimethyl-3-[N-(methylsulfonyl)-L-valyl]-3-azabicyclo[3.1.0]hexane-2 carboxamide]
- microsomal CLint (in vitro): 127 ± 3 µL/min/mg

SMILES: CC(C)(C)[C@H](NC(=O)C(F)(F)F)C(=O)N1C[C@H]2[C@@H]([C@H]1C(=O)N[C@H](C#N)C[C@@H]1CCNC1=O)C2(C)C [compound 6, (1R,2S,5S)-N-{(1S)-1-Cyano-2-[(3S)-2-oxopyrrolidin-3-yl]ethyl}-6,6-dimethyl-3-[3-methyl-N-(trifluoroacetyl)-L-valyl]-3-azabicyclo[3.1.0]hexane-2-carboxamide]
- IC50 (Human Thrombin): > 100 µM
- IC50 (Bovine Chymotrypsin): > 100 µM
- IC50 (Human Elastase): > 100 µM
